How the values were obtained:
[1] = molecular target: Androgen receptor (Homo sapiens) (UniProt P10275); experiment: Selectivity interaction (Panel of non-epigenetic targets (kinases, GPCRs, ion channels, and transporters, Eurofins) ) EUB0000271b AR; details: at 1 µM
[2] = molecular target: T1, MAP/microtubule affinity-regulating kinase 4 (Homo sapiens) (UniProt Q96L34); experiment: Selectivity interaction (KinomeScan (DiscoverX)) EUB0000607a MARK4; details: at 10 µM
T1 sequence (whole entry): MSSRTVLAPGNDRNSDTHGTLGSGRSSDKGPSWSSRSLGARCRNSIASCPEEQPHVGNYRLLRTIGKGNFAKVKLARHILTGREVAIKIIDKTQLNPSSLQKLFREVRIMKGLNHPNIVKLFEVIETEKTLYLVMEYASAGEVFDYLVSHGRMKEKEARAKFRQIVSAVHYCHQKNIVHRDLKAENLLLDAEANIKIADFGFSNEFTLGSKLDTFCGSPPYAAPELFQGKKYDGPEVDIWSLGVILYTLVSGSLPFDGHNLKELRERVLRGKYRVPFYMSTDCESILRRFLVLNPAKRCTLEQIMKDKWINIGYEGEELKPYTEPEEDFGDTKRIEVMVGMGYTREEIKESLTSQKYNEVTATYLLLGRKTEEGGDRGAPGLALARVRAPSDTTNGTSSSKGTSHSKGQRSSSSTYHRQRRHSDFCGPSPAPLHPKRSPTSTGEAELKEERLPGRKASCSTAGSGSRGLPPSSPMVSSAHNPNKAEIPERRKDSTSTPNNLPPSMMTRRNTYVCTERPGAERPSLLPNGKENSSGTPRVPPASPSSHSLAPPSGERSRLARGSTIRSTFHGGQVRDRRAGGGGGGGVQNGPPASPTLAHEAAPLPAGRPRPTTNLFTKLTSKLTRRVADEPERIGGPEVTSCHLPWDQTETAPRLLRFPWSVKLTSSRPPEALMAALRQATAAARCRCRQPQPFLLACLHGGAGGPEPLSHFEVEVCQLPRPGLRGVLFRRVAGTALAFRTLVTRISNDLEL

[3] = molecular target: T2, Serine/threonine-protein kinase ULK3 (Homo sapiens) (UniProt Q6PHR2); experiment: Selectivity interaction (KinomeScan (DiscoverX)) EUB0000045b ULK3
T2 sequence (whole entry): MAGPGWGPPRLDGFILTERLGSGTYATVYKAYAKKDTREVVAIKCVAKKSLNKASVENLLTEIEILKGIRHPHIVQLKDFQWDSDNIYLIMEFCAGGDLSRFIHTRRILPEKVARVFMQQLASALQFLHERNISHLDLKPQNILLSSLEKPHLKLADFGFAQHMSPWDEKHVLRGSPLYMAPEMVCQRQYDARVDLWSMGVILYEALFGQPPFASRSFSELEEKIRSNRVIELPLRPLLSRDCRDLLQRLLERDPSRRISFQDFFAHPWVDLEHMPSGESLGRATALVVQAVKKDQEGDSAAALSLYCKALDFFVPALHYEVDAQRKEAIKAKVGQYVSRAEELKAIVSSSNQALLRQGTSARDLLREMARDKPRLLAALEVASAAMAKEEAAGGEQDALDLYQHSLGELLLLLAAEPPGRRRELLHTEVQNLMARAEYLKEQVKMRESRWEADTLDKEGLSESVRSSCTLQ

[4] = molecular target: Casein kinase I isoform gamma-2 (Homo sapiens) (UniProt P78368); details: at 10 µM
Casein kinase I isoform gamma-2 (Homo sapiens), sequence (P78368 whole entry, looked up, canonical isoform): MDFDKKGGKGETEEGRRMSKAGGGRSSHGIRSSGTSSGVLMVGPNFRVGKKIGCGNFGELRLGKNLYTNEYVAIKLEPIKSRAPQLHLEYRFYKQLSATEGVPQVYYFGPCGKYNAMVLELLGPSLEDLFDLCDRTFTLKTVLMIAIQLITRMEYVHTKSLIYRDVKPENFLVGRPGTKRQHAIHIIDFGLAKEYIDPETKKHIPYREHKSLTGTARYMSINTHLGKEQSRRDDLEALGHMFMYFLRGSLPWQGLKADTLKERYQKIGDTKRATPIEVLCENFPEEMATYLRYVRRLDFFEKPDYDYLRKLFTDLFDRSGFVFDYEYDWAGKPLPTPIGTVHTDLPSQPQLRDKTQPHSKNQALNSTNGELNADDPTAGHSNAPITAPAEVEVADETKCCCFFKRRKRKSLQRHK

[5] = molecular target: T3, Serine/threonine-protein kinase DCLK3 (Homo sapiens) (UniProt Q9C098); details: at 10 µM
T3 sequence (whole entry): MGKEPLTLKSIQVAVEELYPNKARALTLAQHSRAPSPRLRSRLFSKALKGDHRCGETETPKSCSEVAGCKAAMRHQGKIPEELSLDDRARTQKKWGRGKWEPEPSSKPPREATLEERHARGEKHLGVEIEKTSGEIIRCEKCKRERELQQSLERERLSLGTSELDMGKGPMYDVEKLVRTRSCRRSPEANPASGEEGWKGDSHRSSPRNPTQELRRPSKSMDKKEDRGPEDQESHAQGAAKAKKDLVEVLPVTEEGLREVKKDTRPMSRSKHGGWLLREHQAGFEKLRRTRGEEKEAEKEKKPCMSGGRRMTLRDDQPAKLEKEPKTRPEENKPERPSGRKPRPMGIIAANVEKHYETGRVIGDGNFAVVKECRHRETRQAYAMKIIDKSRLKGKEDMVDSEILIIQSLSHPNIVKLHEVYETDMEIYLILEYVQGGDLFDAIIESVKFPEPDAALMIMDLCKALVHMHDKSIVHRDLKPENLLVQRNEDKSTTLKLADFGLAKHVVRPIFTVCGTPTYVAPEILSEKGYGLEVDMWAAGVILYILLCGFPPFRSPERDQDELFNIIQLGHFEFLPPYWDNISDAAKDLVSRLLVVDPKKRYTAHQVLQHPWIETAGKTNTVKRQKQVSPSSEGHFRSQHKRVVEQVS

[6] = molecular target: Ephrin type-A receptor 5 (Homo sapiens) (UniProt P54756); experiment: Selectivity interaction (KinomeScan (DiscoverX)) EUB0000666a EPHA5; details: at 10 µM
Ephrin type-A receptor 5 (Homo sapiens), sequence (P54756 whole entry): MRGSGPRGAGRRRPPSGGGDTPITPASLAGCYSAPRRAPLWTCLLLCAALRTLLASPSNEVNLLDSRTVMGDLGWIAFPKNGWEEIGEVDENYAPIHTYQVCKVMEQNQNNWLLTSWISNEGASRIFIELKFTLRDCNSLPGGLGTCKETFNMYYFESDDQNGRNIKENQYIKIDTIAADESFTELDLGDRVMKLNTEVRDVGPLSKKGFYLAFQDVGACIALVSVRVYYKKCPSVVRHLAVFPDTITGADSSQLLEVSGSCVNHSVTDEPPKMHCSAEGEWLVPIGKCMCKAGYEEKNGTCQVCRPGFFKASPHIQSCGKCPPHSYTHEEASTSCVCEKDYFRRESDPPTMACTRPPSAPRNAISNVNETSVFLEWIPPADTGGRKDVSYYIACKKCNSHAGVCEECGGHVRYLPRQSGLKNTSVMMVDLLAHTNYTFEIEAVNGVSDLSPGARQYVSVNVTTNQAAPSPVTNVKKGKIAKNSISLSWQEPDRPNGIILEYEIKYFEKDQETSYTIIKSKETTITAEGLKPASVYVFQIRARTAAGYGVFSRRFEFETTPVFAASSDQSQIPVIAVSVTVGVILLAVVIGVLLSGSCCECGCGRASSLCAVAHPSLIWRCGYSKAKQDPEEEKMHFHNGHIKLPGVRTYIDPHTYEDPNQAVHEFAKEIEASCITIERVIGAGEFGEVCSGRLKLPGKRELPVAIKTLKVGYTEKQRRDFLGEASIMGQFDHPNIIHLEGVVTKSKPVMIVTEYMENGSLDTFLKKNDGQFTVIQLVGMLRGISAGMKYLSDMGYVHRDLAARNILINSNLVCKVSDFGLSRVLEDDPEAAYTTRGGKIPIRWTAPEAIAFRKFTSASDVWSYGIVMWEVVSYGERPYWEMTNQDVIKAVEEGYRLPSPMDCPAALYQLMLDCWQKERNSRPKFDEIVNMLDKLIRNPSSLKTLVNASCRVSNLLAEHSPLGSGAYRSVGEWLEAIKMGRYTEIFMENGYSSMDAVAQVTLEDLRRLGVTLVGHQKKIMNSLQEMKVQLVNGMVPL

[7] = molecular target: Vascular endothelial growth factor receptor 3 (Homo sapiens, UniProt P35916); experiment: Selectivity interaction (KinomeScan (DiscoverX)) EUB0000695a FLT4; details: at 100 nM
Vascular endothelial growth factor receptor 3, sequence (P35916 whole entry): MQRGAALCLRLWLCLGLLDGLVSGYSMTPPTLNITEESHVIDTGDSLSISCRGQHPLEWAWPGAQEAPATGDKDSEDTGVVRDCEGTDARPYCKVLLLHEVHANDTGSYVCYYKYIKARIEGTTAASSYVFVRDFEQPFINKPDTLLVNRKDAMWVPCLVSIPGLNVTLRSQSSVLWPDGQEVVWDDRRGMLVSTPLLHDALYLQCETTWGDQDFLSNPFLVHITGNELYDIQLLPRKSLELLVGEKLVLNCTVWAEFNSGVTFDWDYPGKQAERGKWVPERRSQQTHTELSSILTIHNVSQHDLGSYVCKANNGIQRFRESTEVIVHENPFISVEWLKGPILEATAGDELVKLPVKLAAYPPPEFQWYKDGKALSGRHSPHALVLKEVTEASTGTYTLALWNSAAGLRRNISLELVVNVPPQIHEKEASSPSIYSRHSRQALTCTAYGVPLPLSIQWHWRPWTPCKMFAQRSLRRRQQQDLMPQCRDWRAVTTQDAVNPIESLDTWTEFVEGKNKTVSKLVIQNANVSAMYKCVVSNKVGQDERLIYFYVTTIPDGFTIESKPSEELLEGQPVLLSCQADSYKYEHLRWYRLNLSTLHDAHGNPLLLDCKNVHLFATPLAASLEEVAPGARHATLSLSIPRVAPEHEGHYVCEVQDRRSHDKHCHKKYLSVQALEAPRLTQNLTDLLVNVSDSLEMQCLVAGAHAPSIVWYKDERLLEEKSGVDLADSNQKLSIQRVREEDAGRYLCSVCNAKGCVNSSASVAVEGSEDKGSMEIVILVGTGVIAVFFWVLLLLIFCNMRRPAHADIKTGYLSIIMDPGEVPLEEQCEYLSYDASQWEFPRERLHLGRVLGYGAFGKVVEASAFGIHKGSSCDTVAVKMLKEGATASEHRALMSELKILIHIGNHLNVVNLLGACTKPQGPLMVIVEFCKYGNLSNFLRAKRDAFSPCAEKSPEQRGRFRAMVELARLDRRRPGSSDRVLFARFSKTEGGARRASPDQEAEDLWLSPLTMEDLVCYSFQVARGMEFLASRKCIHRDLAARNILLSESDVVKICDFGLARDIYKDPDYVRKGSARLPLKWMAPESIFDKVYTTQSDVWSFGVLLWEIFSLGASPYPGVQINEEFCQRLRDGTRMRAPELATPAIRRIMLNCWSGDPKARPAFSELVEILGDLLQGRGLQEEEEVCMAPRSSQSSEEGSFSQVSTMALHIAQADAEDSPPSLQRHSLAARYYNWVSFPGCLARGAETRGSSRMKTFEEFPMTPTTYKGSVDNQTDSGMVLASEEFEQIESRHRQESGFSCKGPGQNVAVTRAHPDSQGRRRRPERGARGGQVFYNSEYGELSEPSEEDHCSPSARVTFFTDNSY

Androgen receptor (Homo sapiens), sequence (P10275 whole entry): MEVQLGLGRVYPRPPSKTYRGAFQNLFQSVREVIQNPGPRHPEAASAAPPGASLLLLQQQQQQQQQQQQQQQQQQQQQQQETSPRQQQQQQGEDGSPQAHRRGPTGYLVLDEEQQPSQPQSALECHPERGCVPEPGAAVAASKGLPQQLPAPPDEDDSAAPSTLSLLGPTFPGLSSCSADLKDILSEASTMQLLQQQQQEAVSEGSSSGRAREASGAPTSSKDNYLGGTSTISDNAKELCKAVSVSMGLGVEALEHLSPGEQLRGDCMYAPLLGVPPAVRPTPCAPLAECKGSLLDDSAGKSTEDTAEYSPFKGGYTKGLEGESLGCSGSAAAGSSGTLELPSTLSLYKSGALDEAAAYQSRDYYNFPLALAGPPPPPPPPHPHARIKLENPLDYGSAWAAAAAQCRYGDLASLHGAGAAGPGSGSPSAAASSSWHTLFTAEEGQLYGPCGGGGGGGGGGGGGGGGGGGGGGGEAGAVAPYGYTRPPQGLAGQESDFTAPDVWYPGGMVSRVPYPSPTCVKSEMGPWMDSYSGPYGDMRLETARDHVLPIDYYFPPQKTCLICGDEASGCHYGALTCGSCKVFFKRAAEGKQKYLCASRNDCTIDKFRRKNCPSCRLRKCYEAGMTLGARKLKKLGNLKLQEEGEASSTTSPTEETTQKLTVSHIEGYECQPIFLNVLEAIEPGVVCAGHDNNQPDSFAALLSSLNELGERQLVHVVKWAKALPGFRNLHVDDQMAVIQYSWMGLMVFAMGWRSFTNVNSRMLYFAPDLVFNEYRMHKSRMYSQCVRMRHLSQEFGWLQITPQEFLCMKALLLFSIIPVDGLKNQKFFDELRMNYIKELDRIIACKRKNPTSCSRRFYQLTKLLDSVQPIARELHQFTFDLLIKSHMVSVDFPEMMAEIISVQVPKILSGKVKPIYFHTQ

`Cc1cc(C)cc([C@@H]2c3cc(C)ccc3NC(=O)CN2C(=O)c2ccc(Br)s2)c1` showed a % of inhibition [1] of -7%.

Work on `CNC(=O)Nc1ccc(-c2nc(N3CC4CCC(C3)O4)c3cnn(C4CCC5(CC4)OCCO5)c3n2)cc1` yielded a % of control [2] of 94%.

`C=CC(=O)Nc1cc(-n2c(=O)ccc3cnc4ccc(-c5ccc(NS(C)(=O)=O)cc5)cc4c32)ccc1C` showed a % of control ([3]; at 1 µM) of 80% and a % of control ([3]; at 10 µM) of 100%.

Work on `COCC(=O)NC/C=C/c1ccc2ncnc(Nc3ccc(Oc4ccc(C)nc4)c(C)c3)c2c1` [CP-724714] yielded a % of control [4] of 100%.

`Cc1cc([C@@H](C)Nc2ccccc2C(=O)O)c2nc(N3CCOCC3)cc(=O)n2c1` [AZD-6482] gave a % of control [5] of 85%.

`O=C(NOC[C@H](O)CO)c1ccc(F)c(F)c1Nc1ccc(I)cc1F` showed a % of control [6] of 96%.

With `Cc1cc(F)c(C(=O)Nc2cccc(-c3nncn3C(C)C)n2)cc1-n1cnc(C2CC2)c1` the % of control [7] was 100%.

— ChEMBL document CHEMBL5465560, “Selectivity Literature for EUbOPEN Chemogenomic Library” (2024)
